In brackets after ≈: the same amount, converted by molar mass.
Key:
Assay in all cases: Antifungal MIC, broth dilution
A. niger ATCC 16404 = type: cell-based, Aspergillus niger; conditions: Aspergillus niger, ATCC16404, RPMI 1640 with MOPS, end point 48 hours, read-out: An01 MIC50
Method: (§1) The compounds of Formula 1 were tested for antifungal activity against Candida albicans, Aspergillus niger and Fusarium proliferatum. In vitro evaluation of antifungal activity was performed by determining the minimum inhibitory concentration (MIC) following standard methods (CLSI: Reference method for broth dilution antifungal susceptibility testing of yeasts; Approved standard, second edition M27-A2, 2002; CLSI: Reference method for broth dilution antifungal susceptibility testing of filamentous fungi; Approved standard M38-A, 2002). Anti-fungal susceptibility testing of these anti-fungal compounds was done by broth dilution method using RPMI 1640 medium with MOPS buffer. Known anti-fungal agents like fluconazole and amphotericin-B were used as positive control. End points were determined after 48 hours visually and by using spectrophotometer wherever necessary. Different dilutions were tried and various sets of experiments performed. The activity parameters are enumerated in Table 5.

C. tropicalis ATCC 750 = type: cell-based; conditions: Candida tropicalis, ATCC750, RPMI 1640 with MOPS, end point 48 hours, read-out: Ct01 MIC50
C. glabrata ATCC 90030 = type: cell-based; conditions: Nakaseomyces glabratus, ATCC90030, RPMI 1640 with MOPS, end point 48 hours, read-out: Cg01 MIC50
C. krusei ATCC 6258 = type: cell-based; conditions: Pichia kudriavzevii, ATCC6258, RPMI 1640 with MOPS, end point 48 hours, read-out: Ck01 MIC50
C. neoformans ATCC 34664 = type: cell-based; conditions: Cryptococcus neoformans, ATCC34664, RPMI 1640 with MOPS, end point 48 hours, read-out: Cn01 MIC50
[1] = tested on: F. proliferatum ATCC 10052; type: cell-based, Fusarium proliferatum; conditions: Fusarium proliferatum, ATCC10052, RPMI 1640 with MOPS, end point 48 hours, read-out: Fp01 MIC50
Method: as §1

C. albicans ATCC 24433 = type: cell-based, Candida albicans; conditions: Candida albicans, ATCC24433, RPMI 1640 with MOPS, end point 48 hours; for MIC80: read-out: Ca01 A: MIC80; for MIC50: read-out: Ca01 B: MIC50
Method: as §1

A. fumigatus ATCC 46645 = type: cell-based; conditions: Aspergillus fumigatus, ATCC46645, RPMI 1640 with MOPS, end point 48 hours, read-out: Afm01 MIC50

SMILES | MIC50 (A. niger ATCC 16404) [µg/mL] | MIC50 (C. tropicalis ATCC 750) [µg/mL] | MIC50 (C. glabrata ATCC 90030) [µg/mL] | MIC50 (C. krusei ATCC 6258) [µg/mL] | MIC50 (C. neoformans ATCC 34664) [µg/mL] | MIC50 [1] [µg/mL] | MIC80 (C. albicans ATCC 24433) [µg/mL] | MIC50 (C. albicans ATCC 24433) [µg/mL] | MIC50 (A. fumigatus ATCC 46645) [µg/mL]
COc1ccc(/C=C/C(=O)c2ccc(OC[C@](O)(Cn3cncn3)c3ccc(F)cc3F)cc2)cc1 [R-(−)-1A-2] | 2 (≈ 4.07 µM) | 0.25 (≈ 0.509 µM) | 0.06 (≈ 0.122 µM) | 2 (≈ 4.07 µM) | 0.5 (≈ 1.02 µM) | > 4 | 0.12 (≈ 0.244 µM) | 0.06 (≈ 0.122 µM) | > 4
O=C(/C=C/c1ccc2ccccc2c1)c1ccc(OCC(O)(Cn2cncn2)c2ccc(F)cc2F)cc1 (stereo not drawn) [Compound 1A-14] | > 4 | 0.5 (≈ 0.977 µM) | 0.5 (≈ 0.977 µM) | 1 (≈ 1.95 µM) | 0.5 (≈ 0.977 µM) | > 4 | 0.5 (≈ 0.977 µM) | 0.25 (≈ 0.489 µM) | > 4
O=C(/C=C/c1ccc(Cl)cc1)c1ccc(OC[C@](O)(Cn2cncn2)c2ccc(F)cc2F)cc1 [R-(−)-1A-6, R-(−)-(E)-3-(4-chlorophenyl)-1-(4-(2-(2,4-difluorophenyl)-2-hydroxy-3-(1H-1,2,4-triazol-1-yl)propoxy)phenyl)prop-2-en-1-one] | > 4 | 0.5 (≈ 1.01 µM) | 0.12 (≈ 0.242 µM) | 1 (≈ 2.02 µM) | 0.25 (≈ 0.504 µM) | > 4 | 0.12 (≈ 0.242 µM) | 0.06 (≈ 0.121 µM) | > 4
COc1ccc(/C=C/C(=O)c2ccc(OC[C@@](O)(Cn3cncn3)c3ccc(F)cc3F)cc2)cc1 [S-(+)-1A-2] | > 4 | 2 (≈ 4.07 µM) | 1 (≈ 2.03 µM) | > 4 | 2 (≈ 4.07 µM) | > 4 | 1 (≈ 2.03 µM) | 0.5 (≈ 1.02 µM) | > 4
Cc1ccc(C(=O)/C=C/c2ccc(OCC(O)(Cn3cncn3)c3ccc(F)cc3F)cc2)cc1 (stereo not drawn) [Compound 1A-21] | > 4 | 1 (≈ 2.1 µM) | 0.25 (≈ 0.526 µM) | 2 (≈ 4.21 µM) | 1 (≈ 2.1 µM) | > 4 | 0.25 (≈ 0.526 µM) | 0.12 (≈ 0.252 µM) | 8 (≈ 16.8 µM)
O=C(/C=C/c1ccccc1)c1ccc(OCC(O)(Cn2cncn2)c2ccc(F)cc2F)cc1 (stereo not drawn) [Compound 1A-1] | > 2 | 0.5 (≈ 1.08 µM) | 0.25 (≈ 0.542 µM) | > 2 | 1 (≈ 2.17 µM) | > 2 | 0.12 (≈ 0.26 µM) | 0.06 (≈ 0.13 µM) | > 2
O=C(/C=C/c1cccs1)c1ccc(OCC(O)(Cn2cncn2)c2ccc(F)cc2)cc1 (stereo not drawn) [Compound 1A-17] | > 8 | 2 (≈ 4.45 µM) | 0.25 (≈ 0.556 µM) | 8 (≈ 17.8 µM) | 1 (≈ 2.22 µM) | > 8 | 0.5 (≈ 1.11 µM) | 0.25 (≈ 0.556 µM) | > 8
OC(Cn1cncn1)(Cn1cncn1)c1ccc(F)cc1F [FLU, fluconazole] | > 128 | 1 (≈ 3.27 µM) | 1 (≈ 3.27 µM) | 32 (≈ 104 µM) | 2 (≈ 6.53 µM) | > 128 | 1 (≈ 3.27 µM) | 0.25 (≈ 0.816 µM) | > 128
COc1ccc(/C=C/C(=O)c2ccc(OCC(O)(Cn3cncn3)c3ccc(F)cc3F)cc2)cc1 (stereo not drawn) [Compound 1A-2] | 4 (≈ 8.14 µM) | 0.25 (≈ 0.509 µM) | 0.25 (≈ 0.509 µM) | 4 (≈ 8.14 µM) | 1 (≈ 2.03 µM) | > 4 | 0.12 (≈ 0.244 µM) | 0.06 (≈ 0.122 µM) | > 4
O=C(/C=C/c1ccc(Cl)cc1)c1ccc(OCC(O)(Cn2cncn2)c2ccc(F)cc2F)cc1 (stereo not drawn) [Compound 1A-6] | > 4 | 0.5 (≈ 1.01 µM) | 0.5 (≈ 1.01 µM) | 2 (≈ 4.03 µM) | 0.5 (≈ 1.01 µM) | > 4 | 0.25 (≈ 0.504 µM) | 0.5 (≈ 1.01 µM) | > 4
CC(=O)/C=C/c1ccc(OCC(O)(Cn2cncn2)c2ccc(F)cc2F)cc1 (stereo not drawn) [Compound 1A-25] | 8 (≈ 20 µM) | 2 (≈ 5.01 µM) | 0.12 (≈ 0.3 µM) | 8 (≈ 20 µM) | 4 (≈ 10 µM) | > 128 | 0.25 (≈ 0.626 µM) | 0.12 (≈ 0.3 µM) | 8 (≈ 20 µM)

From US9512087B2, “Hybrid molecules containing pharmacophores of fluconazole as antifungal agents and their preparation” (Council for Scientific & Industrial Research, priority 2011, dated 2016)
